Test results published in patent US20110039762A1, “TARGETED ANTIMICROBIAL MOIETIES” (C3 JIAN, INC., priority 2009, published 2011).
Values after ≈ are worked out from the molar mass of the structure shown. Peptide text beside a SMILES is read from it.

Experiments:
P. aeruginosa [1] = experiment: Post-antibiotic effect assay (growth retardation after 10 min exposure); format: cell-based, Pseudomonas aeruginosa; settings: P. aeruginosa monoculture, peptide 10 min, then fresh medium
Method: (§1) The activity and selectivity of MH-STAMPs after a 10 min incubation was determined by growth retardation experiments against targeted and untargeted bacteria in monocultures, as described previously (Id.). Cells from overnight cultures were diluted to ˜5×10^6 cfu/mL in MH (or TH with 1% sucrose for S. mutans), normalized by OD600 0.05-0.1 and seeded to 96-well plates. Cultures were then grown under the appropriate conditions for 2 h (3 h for S. mutans) prior to the addition of peptides for 10 min. Plates were then centrifuged at 3000×g for 5 min, the supernatants discarded, fresh medium returned (MH or TH without sucrose for S. mutans), and incubation resumed. Bacterial growth after treatment was then monitored over time by OD600.

[2] = system: Mixed planktonic populations of P. aeruginosa, E. coli, S. epidermidis, and S. mutans; experiment: Microbial population shift assay; format: cell-based; settings: 10 μM peptide, 24 h
Method: Peptide (10 μM) or mock-treatment (1× PBS) was then added and samples were incubated at 37° C. for 24 h under anaerobic conditions (80% N2, 15% CO2, 5% H2). […] Plates were then incubated 37° C. under aerobic conditions (TH plates were incubated anaerobically) and colonies counted after 24 h to determine survivors. […] Gram stains and direct microscopic observation (from select isolated colonies) were undertaken to confirm species identity (data not shown). The detection limit of the assay was 200 cfu/mL.

S. mutans [3] = format: cell-based, Streptococcus mutans
S. aureus = experiment: Post-antibiotic effect assay (growth retardation after 10 min exposure); format: cell-based, Staphylococcus aureus; settings: S. aureus monoculture, peptide 10 min, then fresh medium
Method: as §1

E. coli [4] = format: cell-based, Escherichia coli
Method: (§2) Typically, the in vitro antimicrobial activity of antimicrobial agents is tested using standard NCCLS bacterial inhibition assays, or MIC tests (see, National Committee on Clinical Laboratory Standards “Performance Standards for Antimicrobial Susceptibility Testing,” NCCLS Document M100-S5 Vol. 14, No. 16, December 1994; “Methods for dilution antimicrobial susceptibility test for bacteria that grow aerobically-Third Edition,” Approved Standard M7-A3, National Committee for Clinical Standards, Villanova, Pa.).
(§3) Briefly, ˜1×10^5 cfu/mL bacteria were diluted in TH (S. mutans), or Mueller-Hinton (MH) broth (all other organisms) and distributed to 96-well plates. Serially-diluted (2-fold) peptides were then added and the plates incubated at 37° C. for 18-24 h. […] All experiments were conducted 10 times.

panel of bacteria = experiment: General antimicrobial activity by MIC against a panel of bacteria; format: cell-based; settings: panel of bacteria (Table 19)
Method: as §3

E. coli [5] = experiment: Post-antibiotic effect assay (growth retardation after 10 min exposure); format: cell-based, Escherichia coli; settings: E. coli monoculture, peptide 10 min, then fresh medium
Method: as §1

S. epidermidis [6] = experiment: as above; format: cell-based, Staphylococcus epidermidis; settings: S. epidermidis monoculture, peptide 10 min, then fresh medium
Method: as §1

S. mutans [7] = experiment: as above; format: cell-based, Streptococcus mutans; settings: S. mutans monoculture, peptide 10 min, then fresh medium
Method: as §1

[8] = system: Staphylococcus aureus Newmann; format: cell-based
Method: (§4) Aerobic Gram-negative organisms were grown in Lauri-Bertaini (LB) broth and Gram-positive bacteria in Brain-heart infusion (BHI) broth. Streptococcus mutans JM11 (spectinomycin resistant, UA140 background) was grown in Todd-Hewitt (TH) broth under anaerobic conditions (80% N2, 15% CO2, 5% H2) at 37° C. Merritt et al. (2005) J Microbiol Meth., 61: 161-170. All bacteria were grown overnight to an OD600 of 0.8-1.0 prior to appropriate dilution and antimicrobial testing.
as §3

[9] = system: Klebsiella pneumoniae KAY 2026; format: cell-based
Method: as §4, §3

P. aeruginosa [10] = format: cell-based, Pseudomonas aeruginosa
Method: as §2, §3

S. epidermidis [11] = format: cell-based, Staphylococcus epidermidis
Summary of the method: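 ~1×10^5 cfu/mL inoculum, MH broth; peptides 2-fold serial dilution; 37° C., 18-24 h; n=10; NCCLS M7-A3 method.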

[12] = system: BHK-21 (ATCC CRL-10) fibroblasts; experiment: Cytotoxicity, Promega CellTiterGlo assay; format: cell-based, hamster
Method: Streptococcus oralis ATCC 10557, Streptococcus gordonii (Challis), Streptococcus sanguinis (NY101), Streptococcus mitis ATCC 903, Streptococcus salivarius ATCC 13419 and S. mutans wild-type UA140 and JM11 (spectinomycin-resistant) strains were grown in Todd-Hewitt (TH) broth 37° C. in an anaerobic atmosphere of 80% N2, 10% CO2, and 10% H2. BHK-21 (ATCC CRL-10) fibroblasts were propagated in DMEM with 10% FBS, 1 mM sodium pyruvate, 100 units/mL penicillin G, and 100 μg/mL streptomycin at 37° C. with 5% CO2. Cells were detached with 0.25% trypsin and subcultured as recommended by the supplier.
The effect of RB and C16-RB on […] fibroblasts was ascertained by utilizing the Promega CellTiterGlo assay, as described by the manufacturer. Briefly, fibroblasts were grown to confluence, detached, and seeded to ˜5,000 cells per well in a 96-well opaque walled, clear bottom 96-well plate (Nunc International). For long-term dark toxicity, cells were allowed to attach to for 18 h before the culture medium was replaced with medium plus serially-diluted RB or C16-RB (200 μM to 390 nM) or medium alone. After 18-24 h, equal volume Cell Titer Glo reagent was added to each well and mixed. Luciferace activity was then quantified to measure cell viability (Varian Fluorometer in Biolumenescence mode). To measure cytotoxicity after RB or C16-RB light exposure, cells were seeded at ˜10,000 cells per well and allowed to attach for 4 h. Cell growth medium was then replaced with RB or C16-RB containing medium, prior to exposure (a single well at a time) with blue light (400 mW/cm^2) suspended ˜3 cm from the well bottom. After exposure, cultures were disrupted with Cell Titer Glo and luciferase activity quantitated as above.

[13] = system: mixed biofilms of S. mutans JM11 plus S. oralis, S. gordonii, S. mitis, S. sanguinis, and S. salivarius; experiment: Photodynamic antimicrobial assay against multispecies biofilms; format: cell-based; settings: blue light
Method: To gauge C16-RB selectivity for S. mutans, similar assays were conducted against multispecies biofilms. Mixed biofilms were seeded by diluting (1:5000) a mixture of equal parts S. oralis, S. gordonii, S. mitis, S. sanguinis, S. salivarius, and S. mutans JM11 (made from overnight cultures) into TH with 1% sucrose, 1% glucose, and 1% mannose. Biofilms were incubated and treated as described above with the addition of vitamin C or potassium gluconate. After the addition of agent and 5 min incubation, biofilms were washed 1× with 1× PBS prior to light exposure. After PDT and biofilm disruption, survivors were plated on TH, and TH supplemented with 800 μg/mL spectinomycin, which allowed for quantitation of surviving total oral streptococci and surviving S. mutans, respectively.

S. mutans UA140 biofilms = experiment: Photodynamic antimicrobial assay against single-species biofilms; format: cell-based, Streptococcus mutans; settings: 5 μM, dark controls
Method: To evaluate C16-RB against monoculture biofilms, S. mutans UA140 was grown overnight in TH prior to inoculation for biofilm formation. For biofilms, 1:5000 dilution of overnight culture was made into TH with 1% sucrose in 2 mL centrifuge tubes (200 μL volume) and grown 24 h under anaerobic conditions. After incubation, biofilms were treated for 5 min with 5 or 25 μM C16-RB or 5 μM RB in 1× PBS, or PBS alone, followed by removal of supernatant and exposure to 5 min blue light (emission 400-550 nm, power 400 mW/cm^2) from an Astralis 7 (Ivoclar Vivodent, Austria) handheld LED commonly used as a dental curing light. The light source was suspended 4 cm from the tube bottom (even with the mouth of the tube). A duplicate set of samples were left covered to serve as dark controls. After treatment, biofilms were mechanically disrupted and plated to determine cfu/mL.

## CC[C@H](C)[C@H](NC(=O)[C@@H](N)Cc1ccccc1)C(=O)N[C@@H](CCCNC(=N)N)C(=O)N[C@@H](CCCCN)C(=O)N[C@@H](Cc1ccccc1)C(=O)N[C@@H](CC(C)C)C(=O)N[C@@H](CCCCN)C(=O)N[C@@H](CCCCN)C(=O)N[C@@H](Cc1c[nH]c2ccccc12)C(=O)N[C@@H](CC(C)C)C(=O)N[C@@H](CC(C)C)C(N)=O [BD2.20] (H-FIRKFLKKWLL-NH2; N-terminus assumed)
P. aeruginosa [1]
  bacterial growth (OD600) after treatment: robust antimicrobial activity
[2]; E. coli in mixed culture
  recoverable (surviving) cfu/mL: significant loss of recoverable cfu/mL
[2]; P. aeruginosa in mixed culture
  recoverable (surviving) cfu/mL: significant loss of recoverable cfu/mL
[2]; S. epidermidis in mixed culture
  recoverable (surviving) cfu/mL: significant loss of recoverable cfu/mL
[2]; S. mutans in mixed culture
  recoverable (surviving) cfu/mL: significant loss of recoverable cfu/mL
S. mutans [3]
  MIC: 2.86 ± 0.60 µM (≈ 4.26 µg/mL)
S. aureus
  bacterial growth (OD600) after treatment: inhibited
E. coli [4]
  MIC: 5.47 ± 1.41 µM (≈ 8.16 µg/mL)
Panel of bacteria
  general antimicrobial activity by MIC: robust MICs
E. coli [5]
  bacterial growth (OD600) after treatment: inhibited
S. epidermidis [6]
  bacterial growth (OD600) after treatment: inhibited
S. mutans [7]
  bacterial growth (OD600) after treatment: robust antimicrobial activity
[8]
  MIC: 5.625 ± 1.29 µM (≈ 8.39 µg/mL)
[9]
  MIC: 2.98 ± 0.47 µM (≈ 4.44 µg/mL)
P. aeruginosa [10]
  MIC: 14.4 ± 4.40 µM (≈ 21.5 µg/mL)
S. epidermidis [11]
  MIC: 5.11 ± 1.58 µM (≈ 7.62 µg/mL)

## O=C1OC2(c3cc(I)c(O)c(I)c3Oc3c2cc(I)c(O)c3I)c2c(Cl)c(Cl)c(Cl)c(Cl)c21 [RB, rose bengal]
[12]; BHK cells, blue light
  light-dependent (photo-associated) toxicity: light-dependent toxicity was observed
[12]; BHK, 5 min dark
  IC50: > 100 µM
[13]; mixed biofilm
  photodynamic antimicrobial activity, selectivity: strong indiscriminant photodynamic antimicrobial effects
[13]; plus potassium gluconate
  ratio of surviving S. mutans:non-cariogenic streptococci cfu: ~1
S. mutans UA140 biofilms
  decrease in cfu/mL: appreciable decreases in cfu/mL were not observed
